Like-named read-outs stand apart in the source and are kept apart here.
How the values were obtained:
HEK-293 cells = assay type: cell-based, human
Description: It could be argued that hydraphiles could also localize and disrupt the mammalian cell membranes. […] These hydraphiles increased the permeability of E. coli cells at ½ MIC concentrations. […] It is concluded that C8-C14 hydraphiles can selectively increase the permeability of bacterial cells without affecting the permeability of mammalian cells. […] DMSO and Triton X-100 were used as controls.

[1] = system: tetracycline resistant E. coli (tetA efflux pump); assay type: cell-based, Escherichia coli
Description: However, the bacterial strains used herein are multidrug resistant and the effect of hydraphiles on the inhibition of resistance mechanism (efflux pumps) was not known. The hydraphiles and the controls were tested next to see whether they could recover the activity of antibiotics against efflux pump expressing Gram-positive and Gram-negative bacteria. The MIC of antibiotics were determined in the presence of ½ [MIC] or ¼ [MIC] of each hydraphile or the controls used.

E. coli cells = assay: Potassium release from E. coli cells (potassium selective electrode); conditions: control
Description: This change in potassium ion concentrations was measured using a Potassium selective electrode. […] Gramicidin D and valinomycin were used as controls. […] The potassium transport ability of C8-C14 hydraphiles was then tested at 4 μM.

Tet^R E. coli = assay: Resistance development by sequential culturing
Description: Sequential culturing method was used to determine if bacteria could develop resistance to the hydraphiles.

S. aureus 1199B = assay: MIC, S. aureus 1199B; assay type: cell-based, Staphylococcus aureus
Description: K. pneumoniae (ATCC BAA 2146; another Gram-negative bacterium) that expresses multiple classes of efflux pumps and NDM-1 gene was also used. This K. pneumoniae is a clinically relevant strain that was isolated from a patient. Gram-positive S. aureus 1199B was used that overexpresses the NorA efflux pump. Since ethidium bromide and norfloxacin are the substrates of efflux pumps, S. aureus 1199B was used to evaluate the activity of efflux pumps in the presence of the hydraphiles and other membrane disruptors.
(§1) The minimal inhibitory concentrations (MIC) of all the compounds against three bacterial strains were first determined using the microtiter technique as described above. […] Antimicrobial property of hydraphiles is attributed to the disruption of ion homeostasis in bacteria.

NorA efflux pump [2] = target: T1, NorA efflux pump (Staphylococcus aureus, UniProt P0A0J7); assay: Ethidium bromide release from preloaded S. aureus 1199B (efflux pump inhibition); assay type: cell-based; conditions: compound at 4 μM
T1 construct: Gram-positive S. aureus 1199B was used that overexpresses the NorA efflux pump; endogenous in cells; host or cells: S. aureus 1199B
Description: In a following experiment, the ability of hydraphiles to inhibit the activity of efflux pumps was determined. Specifically, the S. aureus cells were preloaded with EB using 100 μM CCCP. The cells were washed to remove extracellular EB and CCCP. The cells were then treated with hydraphiles. If hydraphiles inhibit the activity of efflux pumps, then there should be small or no change in fluorescence of EB-DNA complex. […] However, if there is no effect of hydraphiles on the efflux pump activity, EB would be released resulting in a decrease in fluorescence.

NorA efflux pump [3] = target: T1, NorA efflux pump; assay: Ethidium bromide accumulation in S. aureus 1199B; assay type: cell-based; conditions: compound at 4 μM
Description: To determine if the activity of efflux pump and accumulation of substrate in the cell cytoplasm was affected by hydraphiles, the S. aureus 1199B strain overexpressing the NorA efflux pump was used. Since ethidium bromide (EB) is one of the substrates of the norA efflux pump, fluorescence from DNA-EB complex was utilized to measure effect of hydraphiles on the norA efflux pump. First, EB was added to the S. aureus 1199B cells followed by hydraphiles or the controls. If the hydraphiles allows for EB accumulation in the cell cytoplasm, an increase in fluorescence would be expected. […] Next step was to determine if the accumulation of EB in the cell cytoplasm was due to the ability of hydraphiles to inhibit the activity of the norA efflux pump or just a simple membrane disruption mechanism.

[4] = system: tetracycline resistant E. coli (tetA efflux pump); assay: microbe, parasite or virus in culture; assay type: cell-based, Escherichia coli; conditions: microtiter, inhibition greater than 80% considered as the MIC
Description: Among the organisms studied are several strains of the bacterium E. coli.
Minimal Inhibitory Concentration (MIC) Procedure. […] Streak the E. coli (DH5α or K-12 MG1655) strain on L.B agar plates. […] Prepare initial concentration of all the compounds required. • 5. […] Vortex each test tube for 2-3 seconds. • 9. […] Vortex each test tube for 2-3 seconds. • 11. […]
as §1

HeLa = assay: Cytotoxicity of hydraphiles to HeLa (XTT assay); conditions: concentration not given
HEK-293 = assay: Cytotoxicity of hydraphiles to HEK-293 (XTT assay); conditions: concentration not given
Cos-7 = assay: Cytotoxicity of hydraphiles to Cos-7 (XTT assay); conditions: concentration not given
[5] = amphiphile/control 1700 μM (0.1%)
[6] = amphiphile 1 μM (½[MIC] for C14 hydraphile)

T1 sequence (P0A0J7 whole entry): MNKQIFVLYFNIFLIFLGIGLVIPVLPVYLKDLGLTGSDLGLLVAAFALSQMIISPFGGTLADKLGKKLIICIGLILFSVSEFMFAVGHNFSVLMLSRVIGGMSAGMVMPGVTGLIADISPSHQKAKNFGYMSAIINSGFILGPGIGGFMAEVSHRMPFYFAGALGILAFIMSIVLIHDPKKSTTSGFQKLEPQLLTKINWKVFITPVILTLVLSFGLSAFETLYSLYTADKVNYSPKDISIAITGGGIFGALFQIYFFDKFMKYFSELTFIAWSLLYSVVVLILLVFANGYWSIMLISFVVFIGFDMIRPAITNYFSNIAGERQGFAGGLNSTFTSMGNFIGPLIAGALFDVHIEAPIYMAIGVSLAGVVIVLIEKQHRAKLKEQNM

**Q.** Which results are given for Triton X-100 [reference compound]?
**A.** viability and permeability of HEK-293 cells (HEK-293 cells): killed all the HEK-293 cells; [Tetracycline] μM in combination ([1]; amphiphile/control 20 μM): 450 ± 100 µM; Fold Enhancement [1, 5]: 2-fold; [Tetracycline] μM in combination [1, 5]: 450 ± 100 µM

**Q.** With `CC(C)[C@@H]1NC(=O)[C@H](C)OC(=O)[C@@H](C(C)C)NC(=O)[C@@H](C(C)C)OC(=O)[C@H](C(C)C)NC(=O)[C@H](C)OC(=O)[C@@H](C(C)C)NC(=O)[C@@H](C(C)C)OC(=O)[C@H](C(C)C)NC(=O)[C@H](C)OC(=O)[C@@H](C(C)C)NC(=O)[C@@H](C(C)C)OC1=O` [Valinomycin, reference compound] as the compound, how does the Fold Enhancement ([1]; amphiphile/control 20 μM) read?
**A.** Its Fold Enhancement is 2-fold.

**Q.** What about the “[Tetracycline] μM in combination” value ([1]; amphiphile/control 20 μM) of the same compound?
**A.** Its value is 450 ± 100 µM.

**Q.** What about the “ion transport from E. coli (potassium)” value (E. coli cells) of the same compound?
**A.** The value was “no change in ion transport”.

**Q.** `CN(C)c1ccc(O)c2c1C[C@H]1C[C@H]3[C@H](N(C)C)C(O)=C(C(N)=O)C(=O)[C@@]3(O)C(O)=C1C2=O` [minocycline] was tested. Which “time in which Tet^R E. coli developed resistance” value (Tet^R E. coli) did it give?
**A.** Its value is 4 to 6 days.

**Q.** Which results are given for `COC(=O)[C@H]1[C@H]2C[C@@H]3c4[nH]c5cc(OC)ccc5c4CCN3C[C@H]2C[C@@H](OC(=O)c2cc(OC)c(OC)c(OC)c2)[C@@H]1OC` [Reserpine]?
**A.** MIC (S. aureus 1199B; Staphylococcus aureus, 1199B, read-out: Minimal Inhibitory Concentrations (MIC) S. aureus 1199B): > 128 µM; inhibition of NorA activity, lower than that of hydraphiles (NorA efflux pump [2]): 30%; accumulation of ethidium bromide (EB) in the cell cytoplasm (NorA efflux pump [3]): much lower; MIC ([4]; Escherichia coli, read-out: Minimal Inhibitory Concentrations (MIC) E. coli (Tet^R), compound alone): > 128 µM; Fold Enhancement ([1]; amphiphile/control 64 μM): 2-fold; [Tetracycline] μM in combination ([1]; amphiphile/control 64 μM): 450 µM; [Tetracycline] μM in combination ([1]; amphiphile/control 128 μM): 225 µM

**Q.** How did the “Minimal Inhibitory Concentrations (MIC) S. aureus 1199B” value (S. aureus 1199B; compound alone, inhibition greater than 80% considered as the MIC) turn out when `N#CC(C#N)=NNc1cccc(Cl)c1` [CCCP] was run?
**A.** The value was at most 4 µM.

**Q.** What about the “inhibition of NorA activity, lower than that of hydraphiles” value (NorA efflux pump [2]) of the same compound?
**A.** The value was 30%.

**Q.** What about the “accumulation of ethidium bromide (EB) in the cell cytoplasm” value (NorA efflux pump [3]) of the same compound?
**A.** Its value is “much lower”.

**Q.** And the “Minimal Inhibitory Concentrations (MIC) E. coli (Tet^R)” value ([4]; compound alone)?
**A.** The value was 56 µM.

**Q.** And the “cytotoxicity to HeLa (control)” value (HeLa)?
**A.** Its value is “cytotoxic”.

**Q.** And the “cytotoxicity to HEK-293 (control)” value (HEK-293)?
**A.** Its value is “cytotoxic”.

**Q.** And the Fold Enhancement [1, 6]?
**A.** Its Fold Enhancement is 1-fold.

**Q.** What about the “[Antibiotic] μM / Used (μM) in combination” value [1, 6] of the same compound?
**A.** The value was 900 µM.

**Q.** And the Fold Enhancement ([1]; amphiphile/control 21 μM)?
**A.** The Fold Enhancement was 2-fold.

**Q.** And the “[Tetracycline] μM in combination” value ([1]; amphiphile/control 21 μM)?
**A.** The value was 450 µM.

**Q.** What about the “[Tetracycline] μM in combination” value ([1]; amphiphile/control 42 μM) of the same compound?
**A.** Its value is 225 µM.

**Q.** And the “cytotoxicity to Cos-7 (control)” value (Cos-7)?
**A.** Its value is “cytotoxic”.

From patent publication US10463044B2, “Molecules that inhibit efflux pumps in multi-drug resistant bacteria and uses thereof” (priority 2014, dated 2019)
